Data on one compound can be found in PMC7313430, “Heme-Dependent ER Stress Apoptosis: A Mechanism for the Selective Toxicity of the Dihydroartemisinin, NSC735847, in Colorectal Cancer Cells” (Frontiers in Oncology, 2020).

The IC50 is the point on the concentration scale where inhibition reaches its midpoint.

For test [1], the system named is reactive oxygen species in HT29 cells. Briefly: Oxidative stress measurement with CM-H2DCFDA (DCF). The conditions noted are these: HT29, 10 μM, 8 h. The test is classed as cell-based, human. The procedure:
Oxidative stress was measured in cultured cells by using the probe, chloromethyl-2′,7′ dichlorodihydrofluorescein diacetate (CM-H2DCFDA or DCF) purchased from Life Technologies (Grand Island, NY). […] The cells were loaded with 5 μM DCF in phenol red-free, serum-free medium for 30 min and then the cells were treated with the appropriate drug for the indicated period of time. The cells were then trypsinized and resuspended in serum-containing, phenol red-free medium. The fluorescence of DCF was measured using an Accuri C6 flow cytometer (BD Accuri Cytometers, Ann Arbor, MI) at an excitation wavelength of 488 and emission of 533 ± 30 nm.

In test [2] the test system is FHC cells. Briefly: MTS cell viability assay, non-tumorigenic colon cells. The format is cell-based. The conditions noted are these: Homo sapiens, 24 h treatment. The procedure: (§1) The human colon cancer cell lines HT29 and HCT116 were cultured in McCoy's 5A medium (Sigma Aldrich, St. Louis, MO) containing 10% heat-inactivated fetal bovine serum (FBS), penicillin (100 units/ml), and streptomycin (100 μg/ml). The non-tumorigenic colon cell line, FHC, was cultured in DMEM: F12 (1:1) medium supplemented with 10% heat inactivated FBS, 25 mM HEPES (Thermo Fisher Scientific Inc., IL), 10 ng/ml cholera toxin (Sigma Aldrich, St. Louis, MO), 0.005 mg/ml insulin (Thermo Fisher Scientific Inc., IL), 0.005 mg/ml, transferrin (Sigma Aldrich, St. Louis, MO), 100 ng/ml hydrocortisone (Sigma Aldrich, St. Louis, MO), 20 ng/mL human recombinant epidermal growth factor (Thermo Fisher Scientific Inc., IL), 100 units/ml penicillin, and 100 μg/ml streptomycin.
(§2) Cells were cultured in 96-well-plates for 48 h before treatment. Serum-free media containing different agents was added to the cells at the concentration and time period described in the figure legend. MTS reagent (Promega, Madison, WI) was then added to each well and the absorbance was measured at 495 nm as directed by the manufacturer. In the presence of MTS reagent, the absorbance reading is proportional to the number of viable cells. The half-maximal inhibitory concentration (IC50) of the tested compounds is the concentration that reduces the viability of cells by 50%. IC50 was calculated after 24 h of treatment ([30], [31]) as described previously ([32]–[34]) from dose-response curves (log drug concentration vs. percentage viability from untreated cells) generated by non-linear regression analysis with GraphPad Prism 5 software (GraphPad Software, San Diego, California).
(In general: Tetrazolium assays rely on reduction of a dye to a coloured formazan, in cell work by metabolically active cells.)

For test [3], the system named is caspase 3/7 activity in HCT-116 cells. As to the kind of experiment: Caspase-Glo 3/7 activity assay in HCT116. The format is cell-based, human. The conditions noted are these: 16 h, 1.25-10 μM. The procedure:
(§3) The cells were plated in white-walled 96-well-plates and then they were cultured at 37°C for 48 h. Serum-free culture medium containing the appropriate concentration of different agents was added to the cells for the indicated period of time. Caspase-Glo 3/7 reagent (Promega, Madison, WI) was added to each well and luminescence was detected as directed by the manufacturer. The Caspase-Glo 3/7 kit measures the activity of the executioner caspases 3 and 7 using the luminogenic substrate (Z-DEVD-aminoluciferin) as substrate.

The test system of test [4] is HT29 cells. Briefly: TUNEL assay in HT29. The test is classed as cell-based, human. The conditions noted are these: 5 or 10 μM, 16 h. As for the experimental part:
(§4) HT29, HCT116, and FHC cells were cultured in chamber slides and treated with 5 μM NSC735847, 10 μM NSC735847, or vehicle (0.1% DMSO). The cells were then washed with PBS and fixed in 4% paraformaldehyde before detection of double stranded DNA breaks that are characteristic of apoptosis. Terminal deoxynucleotidyl transferase dUTP nick end labeling (TUNEL) assays were performed as described by the manufacturer (in situ Cell Death Detection Kit; Roche; Indianapolis, IN). Briefly, fixed cells were incubated in permeabilization solution (0.1% Triton X-100 in 0.1% sodium citrate) for 2 min on ice. The slides were rinsed twice with PBS, 50 μL TUNEL reaction mixture was added, and then the samples were incubated for 1 h at 37°C in the dark. The slides were overlayed with antifade mounting medium containing DAPI and then visualized using a Zeiss LSM 700 confocal microscope system (Carl Zeiss Microscopy, LLC, White Plains, NY).

For test [5], the system named is HT29 cells. Briefly: MTS cell viability assay, colon cancer cells HT29. The test is classed as cell-based, human. The procedure: as §1, §2
In test [6] the test system is FHC cells. Briefly: TUNEL assay in FHC. The format is cell-based, human. The conditions noted are these: 5 or 10 μM, 16 h. As for the experimental part: as §4
The next test concerns HCT116 cells. Briefly: MTS cell viability assay, colon cancer cells HCT116. The test is classed as cell-based, human. As for the experimental part: as §1, §2
Test [7] deals with caspase 3/7 activity in FHC cells. As to the kind of experiment: Caspase-Glo 3/7 activity assay in FHC. The test is classed as cell-based, human. The conditions noted are these: 16 h, 1.25-10 μM. The procedure:
as §3

Test [8] has as its system caspase 3/7 activity in HT29 cells. As to the kind of experiment: Caspase-Glo 3/7 activity assay in HT29. The format is cell-based, human. The conditions noted are these: 16 h, 1.25-10 μM. As for the experimental part:
as §3

Where [9] appears, read: MTS, 24 h, single agents or combinations.

Some results are limits rather than exact numbers.

Consider `CC1CCC2C(C)C(OCC(COC3OC4OC5(C)CCC6C(C)CCC(C3C)C46OO5)=NO)OC3OC4(C)CCC1C32OO4` (centres unmarked) [compound (3)], for which the “intracellular oxidative stress (DCF fluorescence)” value in test [1] was “increased the intracellular oxidative stress levels”. Also, the IC50 is over 25 µM with FHC cells [2]; 11 µM in the test with HT29 cells [5] (Homo sapiens, HT-29, MTS viability, 24 h treatment); 11.8 µM with HCT116 cells (Homo sapiens, HCT-116, MTS viability, 24 h treatment). The “caspase 3/7 activity in HCT-116” value in test [3] is recorded as “significantly increased”. In the test on HT29 cells [4], the “TUNEL positive cells in HT29” value is “increased the quantity of TUNEL positive cells”. Further, the “cell death / survival of HT29 cells” value in the test with HT29 cells [5] (setting [9]) is listed as “induced death in a concentration-dependent manner”. Further, the “TUNEL positive cells in FHC” value in the test with FHC cells [6] is listed as “absent”. The “cell death / survival of HCT116 cells” value in the test on HCT116 cells (setting [9]) is recorded as “induced death in a concentration-dependent manner”. In addition, the “caspase 3/7 activity in FHC” value in test [7] is given as “not in FHC cells”. The “caspase 3/7 activity in HT-29” value in test [8] is “significantly increased”.
